One data set relates to tail bleeding. Briefly: Tail bleeding time during thrombosis experiment. In kind it is in vivo, rats. Particulars: for Tail bleeding time, %: control = 100. On the procedure:
Additionally during the thrombosis experiment rat tail bleeding time was measured. The tail was transected 5 mm from the tip with scalpel and the tail was immediately immersed into 37° C. warm isotonic saline until termination of bleeding was noted. Termination of bleeding was defined as the time of complete stop of bleeding with no recurrence of bleeding within the next 30 s.

The next data set deals with CRP. Briefly: CRP levels in blood, carrageneen inflammation model. The format is in vivo, rats. Particulars: for CRP: 5 h after carrageneen; for CRP increase %: carrageneen control = 100. On the procedure: To evaluate the intensity of the inflammation process the CRP levels were determined by standard method on analyzer ? INTEGRA 400+ ? at the end of experiment (5 hours after injection of carrageneen).

In data set [1] the test system is FeCl3 induced carotid artery thrombosis. Nature of the data set: FeCl3 induced carotid artery thrombosis, time till occlusion. The format is in vivo, Wistar rats. Particulars: for Time till occlusion, %: control = 100. From the text:
We chose an experimental thrombosis model based on rat arterial thrombosis induced by FeCl3 (Kurz K et al, Thromb Res 1990, 60:269-280. Wang X, Xu L, Thromb Res 2005,115:95-100). Tissue damage initiated by iron-mediated chemical oxidation predisposes the injured area to platelet adherence and aggregation followed by coagulation activation and fibrin deposition. Male Wistar rats with mass 350-420 g were used in experiments. Animals were kept in groups of 7-8 in adequate cages in climatized room at 22±1° C., relative humidity 60±5% and 12/12-hour light/darkness cycle with free access to feed and water. All experiments were carried out in accordance with the European Community Council's Directive of 24 Nov. 1986 (86/609/EEC) relative to experimental animal care. All efforts were made to minimize animal suffering and to reduce the number of animals used. Rats were randomly divided into various experimental groups, each consisting of not less than seven animals. The vehicle or test compound MD (25 mg/kg), NA (25 mg/kg), MASA (10 mg/kg), ASA (5 mg/kg) and combination MD+NA (25+25 mg/kg), MASA+NA (10+25 mg/kg) and ASA+NA (5+25 mg/kg) was administered by oral route 2 h before the initiation of thrombosis. Parallel experiments were conducted to compare the effects of a single dose of test substance (given 2 h before the initiation of thrombosis) and repeated doses (once daily for 3 days). […] Rats were anaesthetized with pentobarbital sodium (50 mg/kg, i.p. and 10 mg/kg/h) and were placed on a heat controlled operating table throughout the experiment to maintain a body temperature of 37° C. One of the carotid arteries was exposed by cervical incision, separated from the adherent tissue, vagus nerve, and a flow probe (electromagnetic blood flow meter MFV 1200, Nicon Kohden, Japan) was placed on the exposed segment of common carotid artery to record the blood flow. After a stabilization period of 15 min, thrombosis was induced by topically applying (in contact with the adventitial surface of vessel) two pieces (2×1 mm) of Whatman filter paper, soaked in 15% solution of FeCl3. Thrombosis time of carotid artery was recorded as time taken for the complete cessation of the blood flow and has been reported as time till occlusion (TTO).

The test system of a further data set is carrageneen paw oedema. Nature of the data set: Acute inflammatory oedema model (carrageneen test). The following applies: 4 h. The format is in vivo, rats. On the procedure: Experiments were conducted using carrageneen test (Winter C et al, Proc Soc Exptl Biol and Med 1962; III(3):544-547. Wei Jia et al, Journal of Ethnopharmacology 2003(89):139-141; Sutharson Lingadurai et al, African Journal of traditional, complementary and alternative medicines, 2007, 4(4):411-416) on 42 rats with body mass of 226-274 g. Single injection of carrageneen (Sigma) solution (1%) in saline (0.1 ml) was introduced in rat hind leg paw. Test substances were introduced p.o. (through catheter into rat stomach) 30 min. after the injection of carrageneen. The volume of paw was measured by oncometer at baseline and 4 hours after the injection of carrageneen.
The percentage of prevention (inhibition of oedema) was calculated according to formula: P(%)=(1−Vo/Vc)×100, where P—Prevention in % (inhibition of oedema) Vo—difference between the paw volume at baseline and at experimental conditions; Vc—analogical difference in control group.

A further data set relates to rat ear skin temperature. Nature of the data set: Ear skin temperature rise caused by NA, s.c. administration. The format is in vivo, Wistar rats. On the procedure: Male Wistar rats (280-330 g) were used. Animals were held in groups of 6 in climatized rooms at 22±1° C., relative humidity 60±5%, and 12/12-hour light/dark cycle with free access to drinking water and feed (R3—Lactamin AB, Sweden). For registration of changes in skin temperature of intact rats contactless temperature recording method was used (Papaliodis D et al, Br J Pharmacol 2008; 153:1382-1387). Temperature measurements were performed with a hand-held infrared thermometer (Model Proscan 510, TFA-Dostman). Animals were habituated to handling and to the infrared probe for 3 days before use. Temperature readings from the dorsal side of each ear were recorded without anaesthesia at beginning and during experiment. The ear temperature was measured every 5 min. for a period of up to 60 min. The animals were returned to their cages between measurements. NA, MD and MASA were dissolved in saline and pH was corrected immediately before usage. LA (MK 0524, Cayman Chemicals) was first dissolved in DMSO and then freshly diluted with 0.9% NaCl, on each day of the experiment. The rate of NA and LA combination was based on Summary of Product Characteristics for Tredaptive™ (nicotinic acid/laropiprant) 1000 mg/20 mg modified-release tablets.
The influence of LA, MD or MASA alone on skin temperature was checked. Each investigated compound was introduced s.c. simultaneously with NA as LA+NA [0] or 30 min in advance to NA as LA+NA [30].

The mark [2] stands for this setting: 5 mg/kg/d p.o., repeated, 3 days.
Setting [3] is: 100 mg/kg p.o. 30 min after carrageneen.
The mark [4] stands for this setting: 10 mg/kg/d p.o., repeated, 3 days.
Where [5] appears, read: 75 mg/kg p.o. 30 min after carrageneen.
Where [6] appears, read: 150 mg/kg p.o. 30 min after carrageneen.
[7] abbreviates: 300 mg/kg p.o. 30 min after carrageneen.
Setting [8] is: 25 mg/kg p.o., single dose 2 h before.

Where “and” joins values, the source holds several entries; their conditions need not be identical. Identical values can stand only once. Marks after values point to notes of the source that are not given here.

`CC(=O)Oc1ccccc1C(=O)O` [ASA, acetylsalicylic acid]: in the data set with tail bleeding (5 mg/kg p.o., single dose), the Tail bleeding time turned out to be 13.8 ± 3.27 min and the “Tail bleeding time, %” value was 155%. Besides, in the data set on tail bleeding (setting [2]), the Tail bleeding time was 17.8 ± 3.17^1 min and the “Tail bleeding time, %” value is given as 207%. In the data set on CRP (100 mg/kg), this molecule yielded a CRP of 0.20 ± 0.018 mg/L and a CRP increase % of 50%. Besides, the Time till occlusion in data set [1] (5 mg/kg p.o., single dose 2 h before) is 35.2 ± 3.02^1 min. The “Time till occlusion, %” value in data set [1] (5 mg/kg p.o., single dose) is 144%. For the same molecule, in data set [1] (setting [2]), the Time till occlusion was 40.9 ± 3.25^1 min and the “Time till occlusion, %” value stood at 162%. Also, in the data set with carrageneen paw oedema (setting [3]), the “Index, % (inhibition of oedema)” value was 66% and the “Volume of paw after injection of carrageneen” value (“Volume of paw” below) turned out to be 1.97 ± 0.10 mL.
In the case of `CC(=O)Oc1ccccc1C(=O)[O-].C[N+](C)(C)NCCC(=O)O` [MASA, 3-(trimethylammonioamino)propanoate Acetylsalicylic Acid Addition Salt], the Tail bleeding time with tail bleeding (10 mg/kg p.o., single dose) came out at 12.1 ± 2.20 min; in the data set with tail bleeding (setting [4]), 13.1 ± 2.63 min. In addition, the “Tail bleeding time, %” value in the data set on tail bleeding (10 mg/kg p.o., single dose) is reported as 136%; in the data set on tail bleeding (setting [4]) it was 152%. For the same molecule, the CRP with CRP (150 mg/kg) was 0.19 ± 0.009^#$ mg/l; with CRP (300 mg/kg), 0.21 ± 0.014 mg/L. The CRP increase % with CRP (150 mg/kg) came out at 33%; in the data set with CRP (300 mg/kg) it was 67%. Also, the Time till occlusion in data set [1] (10 mg/kg p.o., single dose 2 h before) is 41.7 ± 3.95^2 min and 41.7 ± 3.95^2b min; in data set [1] (setting [4]) it was 48.4 ± 4.35^2 min. Further, the “Time till occlusion, %” value was determined as 171% in data set [1] (10 mg/kg p.o., single dose) and 191% in data set [1] (setting [4]). In the data set with rat ear skin temperature (45 mg/kg s.c. alone), the Maximum temperature is 29.2 ± 0.38^$$$ ° C. The “Index, % (inhibition of oedema)” value in the data set with carrageneen paw oedema (setting [5]) is 18%; in the data set with carrageneen paw oedema (setting [6]), 93%; in the data set on carrageneen paw oedema (setting [7]), 91%. Besides, the figures for the “Volume of paw” value with carrageneen paw oedema (setting [5]), with carrageneen paw oedema (setting [6]) and in the data set on carrageneen paw oedema (setting [7]) were 2.51 ± 0.11 mL, 1.54 ± 0.15***^$& ml and 1.79 ± 0.15 mL, respectively.
For the molecule `C[N+](C)(C)NCCC(=O)[O-].O.O` [MD, 3-(Trimethylammonioamino)propanoate dihydrate], in the data set on tail bleeding (25 mg/kg p.o., single dose), the Tail bleeding time turned out to be 10.5 ± 1.01 min and the “Tail bleeding time, %” value is listed as 118%. Moreover, in the data set with CRP (100 mg/kg), the CRP stood at 0.22 ± 0.014 mg/L and the CRP increase % came to 83%. Also, the Time till occlusion in data set [1] (setting [8]) stood at 29.8 ± 2.29 min. The “Time till occlusion, %” value in data set [1] (25 mg/kg p.o., single dose) came out at 122%. Besides, the Maximum temperature in the data set on rat ear skin temperature (45 mg/kg s.c. alone) is 29.6 ± 0.31^$$$ ° C. In the data set on carrageneen paw oedema (setting [3]), the “Index, % (inhibition of oedema)” value was found to be 43% and the “Volume of paw” value is 2.13 ± 0.12 mL.
`O=C(O)c1cccnc1` [NA, nicotinic acid]: in the data set with tail bleeding (25 mg/kg p.o., single dose), the Tail bleeding time was determined as 11.5 ± 1.39 min and the “Tail bleeding time, %” value stood at 129%. Also, the Time till occlusion in data set [1] (setting [8]) turned out to be 30.3 ± 3.12 min. In addition, the “Time till occlusion, %” value in data set [1] (25 mg/kg p.o., single dose) was found to be 124%. For the same molecule, in the data set with rat ear skin temperature (NA 15 mg/kg s.c.), the Maximum temperature worked out at 32.2 ± 0.42 °C. Further, in the data set with rat ear skin temperature (NA 15 mg/kg s.c., at 10 min), the “maximal temperature increase from baseline” value is 2.32±0.37 °C and the “maximal temperature increase in comparison with Solvent group” value is 2.57±0.43. Also, the “Increase, %” value with rat ear skin temperature (NA 15 mg/kg s.c., effect of NA = 100) worked out at 100%.

Values taken from patent publication US8889902B2, “Acetylsalicylic acid salts” (priority 2009, dated 2014).
